Reference: patent US9073940B2, “Tricyclic pyrazol amine derivatives” (MERCK SERONO SA, priority 2009, dated 2015)
Counter-ions that a name gives are not always drawn.

Test system: 4 PI3K isoforms (Human recombinant GST-PI3K)
Assay: PI3K scintillation proximity assay, best IC50 obtained with the four isoforms (alpha, beta, delta, gamma)
Format: biochemical
Settings: best IC50 obtained with the four isoforms of PI3K; read-out: Best potency measured on the 4 PI3K isoforms

Row | IC50 | SMILES
1 | 0.113 µM | COCCN(C)Cc1ccc(-n2nc(C(=O)N3CCOCC3)c3c2-c2ccccc2S(=O)(=O)C3)cc1 [Example 426, 2-Methoxy-N-methyl-N-{4-[3-(morpholin-4-ylcarbonyl)-5,5-dioxidothiochromeno[4,3-c]pyrazol-1(4H)-yl]benzyl}ethanamine]
2 | 0.229 µM | O=C(c1nn(-c2ccc(CN3CC(F)C3)cc2)c2c1CS(=O)(=O)c1ccccc1-2)N1CCOCC1 [Example 430, 1-{4-[(3-Fluoroazetidin-1-yl)methyl]phenyl}-3-(morpholin-4-ylcarbonyl)-1,4-dihydrothiochromeno[4,3-c]pyrazole 5,5-dioxide]
3 | 0.164 µM | COCCNCc1ccc(-n2nc(C(=O)N3CCOCC3)c3c2-c2ccccc2S(=O)(=O)C3)cc1 [Example 431, 2-Methoxy-N-{4-[3-(morpholin-4-ylcarbonyl)-5,5-dioxidothiochromeno[4,3-c]pyrazol-1(4H)-yl]benzyl}ethanamine]
4 | 0.105 µM | CC1CN(Cc2ccc(-n3nc(C(=O)N4CCOCC4)c4c3-c3ccccc3S(=O)(=O)C4)cc2)CCO1 (stereo not drawn) [Example 432, 1-{4-[(2-Methylmorpholin-4-yl)methyl]phenyl}-3-(morpholin-4-ylcarbonyl)-1,4-dihydrothiochromeno[4,3-c]pyrazole 5,5-dioxide]
5 | 0.057 µM | CC1CN(Cc2ccc(-n3nc(C(=O)N4CCOCC4)c4c3-c3ccccc3S(=O)(=O)C4)cc2)CC(C)O1 (stereo not drawn) [Example 435, 1-{4-[(2,6-Dimethylmorpholin-4-yl)methyl]phenyl}-3-(morpholin-4-ylcarbonyl)-1,4-dihydrothiochromeno[4,3-c]pyrazole 5,5-dioxide]
6 | 0.107 µM | O=C(c1nn(-c2ccc(CNC3CCOCC3)cc2)c2c1CS(=O)(=O)c1ccccc1-2)N1CCOCC1 [Example 436, N-{4-[3-(Morpholin-4-ylcarbonyl)-5,5-dioxidothiochromeno[4,3-c]pyrazol-1 (4H)-yl]benzyl}tetrahydro-2H-pyran-4-amine]
7 | 0.12 µM | CC1(C)CN(Cc2ccc(-n3nc(C(=O)N4CCOCC4)c4c3-c3ccccc3S(=O)(=O)C4)cc2)CCO1 [Example 437, 1-{4-[(2,2-Dimethylmorpholin-4-yl)methyl]phenyl}-3-(morpholin-4-ylcarbonyl)-1,4-dihydrothiochromeno[4,3-c]pyrazole 5,5-dioxide]
8 | 0.226 µM | CNCc1ccc(-n2nc(C(=O)N3CCOCC3)c3c2-c2ccccc2S(=O)(=O)C3)cc1 [Example 449, N-Methyl-1-{4-[3-(morpholin-4-ylcarbonyl)-5,5-dioxidothiochromeno[4,3-c]pyrazol-1 (4H)-yl]phenyl}methanamine]
9 | 0.028 µM | COc1ccc2c(c1)-c1c(c(C(=O)N3CCOCC3)nn1C1CCCN(CCN3CCOCC3)C1)CS2(=O)=O (stereo not drawn) [Example 453, 8-methoxy-3-(morpholin-4-ylcarbonyl)-1-[1-(2-morpholin-4-ylethyl)piperidin-3-yl]-1,4-dihydrothiochromeno[4,3-c]pyrazole 5,5-dioxide]
10 | 0.224 µM | O=C(c1nn(-c2ccc(CNC3CCCOC3)cc2)c2c1CS(=O)(=O)c1ccccc1-2)N1CCOCC1 (stereo not drawn) [Example 455, N-{4-[3-(Morpholin-4-ylcarbonyl)-5,5-dioxidothiochromeno[4,3-c]pyrazol-1(4H)-yl]benzyl}tetrahydro-2H-pyran-3-amine]
11 | 0.156 µM | O=C(c1nn(-c2ccc(CNC3CCOC3)cc2)c2c1CS(=O)(=O)c1ccccc1-2)N1CCOCC1 (stereo not drawn) [Example 456, N-{4-[3-(Morpholin-4-ylcarbonyl)-5,5-dioxidothiochromeno[4,3-c]pyrazol-1(4H)-yl]benzyl}tetrahydrofuran-3-amine]
12 | 0.584 µM | CC(C)(c1ccc(-n2nc(C(=O)N3CCOCC3)c3c2-c2ccccc2S(=O)(=O)C3)cc1)N1CCOCC1 [Example 457, 1-[4-(1-Methyl-1-morpholin-4-ylethyl)phenyl]-3-(morpholin-4-ylcarbonyl)-1,4-dihydrothiochromeno[4,3-c]pyrazole 5,5-dioxide]
13 | 0.159 µM | CN(C)CC(C)(C)c1ccc(-n2nc(C(=O)N3CCOCC3)c3c2-c2ccccc2S(=O)(=O)C3)cc1 [Example 458, N,N,2-Trimethyl-2-{4-[3-(morpholin-4-ylcarbonyl)-5,5-dioxidothiochromeno[4,3-c]pyrazol-1(4H)-yl]phenyl}propan-1-amine hydrochloride]
14 | 0.341 µM | CC(C)(CN1CCOCC1)c1ccc(-n2nc(C(=O)N3CCOCC3)c3c2-c2ccccc2S(=O)(=O)C3)cc1 [Example 461, 1-[4-(1,1-Dimethyl-2-morpholin-4-ylethyl)phenyl]-3-(morpholin-4-ylcarbonyl)-1,4-dihydrothiochromeno[4,3-c]pyrazole 5,5-dioxide]
15 | 0.995 µM | O=C(c1nn(-c2ccc(C3(CN4CCOCC4)CC3)cc2)c2c1CS(=O)(=O)c1ccccc1-2)N1CCOCC1 [Example 462, 3-(Morpholin-4-ylcarbonyl)-1-{4-[1-(morpholin-4-ylmethyl)cyclopropyl]phenyl}-1,4-dihydrothiochromeno[4,3-c]pyrazole 5,5-dioxide]
16 | 0.025 µM | O=C(c1nn([C@H]2CCCN(C3CCCNC3)C2)c2c1CS(=O)(=O)c1ccccc1-2)N1CCOCC1 (stereo partly drawn) [Example 469]
17 | 10.5 µM | O=C(c1nn(C2CCCNC2)c2c1CS(=O)(=O)c1cc(OC(F)(F)F)ccc1-2)N1CCOCC1 (stereo not drawn) [Example 481, 7-(Trifluoromethoxy)-3-(morpholin-4-ylcarbonyl)-1-piperidin-3-yl-1,4-dihydrothiochromeno[4,3-c]pyrazole 5,5-dioxide]
18 | 0.477 µM | O=C(c1nn(-c2ccccc2)c2c1CS(=O)(=O)c1nccn1-2)N1CCOCC1 [Example 485]
19 | 3.46 µM | CN1c2c(C(=O)N3CCOCC3)nn(-c3ccccc3)c2-c2ccccc2S1(=O)=O [Example 488, 4-Methyl-3-(morpholin-4-ylcarbonyl)-1-phenyl-1,4-dihydropyrazolo[4,3-c][1,2]benzothiazine 5,5-dioxide]
20 | 5.5 µM | O=C(c1nn(-c2ccccc2)c2c1NS(=O)(=O)c1ccccc1-2)N1CCOCC1 [Example 489, 3-(Morpholin-4-ylcarbonyl)-1-phenyl-1,4-dihydropyrazolo[4,3-c][1,2]benzothiazine 5,5-dioxide]

Continued, compound first:

Row | SMILES | IC50
21 | O=C(c1nn(C2CCOC2)c2c1CS(=O)(=O)c1c(F)cccc1-2)N1CCOCC1 (stereo not drawn) [Example 365, 6-Fluoro-3-(morpholin-4-ylcarbonyl)-1-(tetrahydrofuran-3-yl)-1,4-dihydrothiochromeno[4,3-c]pyrazole 5,5-dioxide] | 0.353 µM
22 | O=C(c1nn([C@@H]2CCCN(CCN3CCOCC3)C2)c2c1CS(=O)(=O)c1c(Cl)cccc1-2)N1CCOCC1 [Example 387] | 5.23 µM
23 | O=C(c1nn(-c2ccc(CN3CCOCC3)cc2)c2c1CS(=O)(=O)c1ccc(F)cc1-2)N1CCOCC1 [Example 392, 8-Fluoro-3-(morpholin-4-ylcarbonyl)-1-[4-(morpholin-4-ylmethyl)phenyl]-1,4-dihydrothiochromeno[4,3-c]pyrazole 5,5-dioxide] | 0.555 µM
24 | O=C(c1nn(C2CN3CCC2CC3)c2c1CS(=O)(=O)c1ccccc1-2)N1CCOCC1 (stereo not drawn) [Example 393] | 10.2 µM
25 | O=C(c1ccoc1)N1CCC[C@H](n2nc(C(=O)N3CCOCC3)c3c2-c2ccccc2S(=O)(=O)C3)C1 [Example 396] | 0.75 µM
26 | O=C(c1nn([C@H]2CCCN(C(=O)C3CCOCC3)C2)c2c1CS(=O)(=O)c1ccccc1-2)N1CCOCC1 [Example 397] | 1.5 µM
27 | O=C(CC1CCOCC1)N1CCC[C@H](n2nc(C(=O)N3CCOCC3)c3c2-c2ccccc2S(=O)(=O)C3)C1 [Example 398] | 0.345 µM
28 | O=C(CC1CCCCC1)N1CCC[C@H](n2nc(C(=O)N3CCOCC3)c3c2-c2ccccc2S(=O)(=O)C3)C1 [Example 399] | 0.735 µM
29 | O=C(c1nn(C2CCCN(CC3CCOC3)C2)c2c1CS(=O)(=O)c1c(F)cccc1-2)N1CCOCC1 (stereo not drawn) [Example 404, 6-Fluoro-3-(morpholin-4-ylcarbonyl)-1-[1-(tetrahydrofuran-3-ylmethyl)piperidin-3-yl]-1,4-dihydrothiochromeno[4,3-c]pyrazole 5,5-dioxide] | 0.021 µM
30 | O=C(c1nn(C2CN(CCC3CCOCC3)C2)c2c1CS(=O)(=O)c1ccccc1-2)N1CCOCC1 [Example 405, 3-(Morpholin-4-ylcarbonyl)-1-{1-[2-(tetrahydro-2H-pyran-4-yl)ethyl]azetidin-3-yl}-1,4-dihydrothiochromeno[4,3-c]pyrazole 5,5-dioxide] | 0.095 µM
31 | O=C(c1nn(C2CCCN(CCn3cccn3)C2)c2c1CS(=O)(=O)c1c(F)cccc1-2)N1CCOCC1 (stereo not drawn) [Example 406, 6-Fluoro-3-(morpholin-4-ylcarbonyl)-1-{1-[2-(1H-pyrazol-1-yl)ethyl]piperidin-3-yl}-1,4-dihydrothiochromeno[4,3-c]pyrazole 5,5-dioxide] | 0.08 µM
32 | O=C(c1nn(C2CN(CCN3CCOCC3)C2)c2c1CS(=O)(=O)c1ccccc1-2)N1CCOCC1 [Example 407, 3-(Morpholin-4-ylcarbonyl)-1-[1-(2-morpholin-4-ylethyl)azetidin-3-yl]-1,4-dihydrothiochromeno[4,3-c]pyrazole 5,5-dioxide] | 0.236 µM
33 | O=C(c1nn(C2CCCN(CCC3CCOCC3)C2)c2c1CS(=O)(=O)c1ncccc1-2)N1CCOCC1 (stereo not drawn) [Example 408] | 0.061 µM
34 | O=C(c1nn(C2CCCN(CCN3CCOCC3)C2)c2c1CS(=O)(=O)c1c(F)cccc1-2)N1CCOCC1 (stereo not drawn) [Example 413, 6-fluoro-3-(morpholin-4-ylcarbonyl)-1-[1-(2-morpholin-4-ylethyl)piperidin-3-yl]-1,4-dihydrothiochromeno[4,3-c]pyrazole 5,5-dioxide] | 0.016 µM
35 | O=C(c1nn(C2CCCN(CCN3CC(F)(F)C3)C2)c2c1CS(=O)(=O)c1c(F)cccc1-2)N1CCOCC1 (stereo not drawn) [Example 414, 1-{1-[2-(3,3-Difluoroazetidin-1-yl)ethyl]piperidin-3-yl}-6-fluoro-3-(morpholin-4-ylcarbonyl)-1,4-dihydrothiochromeno[4,3-c]pyrazole 5,5-dioxide] | 0.038 µM
36 | O=C(c1nn(C2CCCN(C3COC3)C2)c2c1CS(=O)(=O)c1ccccc1-2)N1CCOCC1 (stereo not drawn) [Example 415, 3-(Morpholin-4-ylcarbonyl)-1-(1-oxetan-3-ylpiperidin-3-yl)-1,4-dihydrothiochromeno[4,3-c]pyrazole 5,5-dioxide] | 0.067 µM
